Test results published in PMC11061835, “Elucidating the Mechanism of Metabolism of Cannabichromene by Human Cytochrome P450s” (Journal of Natural Products, 2024).

Experiments:
[1] = system: BV2 microglial cells, stimulated with lipopolysaccharide (LPS); test: Nitric oxide determination (Griess assay) in LPS-stimulated BV2 cells; format: cell-based, mouse; conditions: 0.1, 1.0, 2.5, 5.0 μM, vs cells treated with LPS only
Description: (§1) BV2 cells were a gift from Dr. Bob McCusker, University of Illinois. They were cultured and maintained at 37 °C in a humidified atmosphere of 95% air and 5% CO2 in high-glucose Dulbecco’s modified Eagle’s (DMEM) medium (Cat No. 10-013-CV, Corning Life Sciences), supplemented with 5% heat-inactivated fetal bovine serum (FBS), streptomycin (100 μg/mL), and penicillin (100 units/mL). Stocks of all the minor cannabinoids were made in ethanol and stored at −80 °C and diluted as required before cell treatment. A final concentration of ethanol was maintained at 0.1% in the cell culture experiments.
First, cell viability of BV2 cells was assessed after treatment with cannabinoids, at various concentrations (0.1, 1.0, 2.5, 5.0 μM), utilizing Cayman’s MTT assay. […] Once viability was determined, we measured the production of pro-inflammatory markers such as nitric oxide (NO), interleukin 6 (IL-6), tumor necrosis factor alpha (TNFα), and arginase 1 (Arg1) after BV2 cells were treated with minor cannabinoids and then stimulated with lipopolysaccharide (LPS) to evoke an inflammatory response.
(§2) BV-2 cells were plated at a density of 50 000 cells/well in a 24-well plate at 37 °C under controlled conditions. Cells were pretreated with the minor cannabinoids at various concentrations (0.1, 1.0, 2.5, 5.0 μM) for 4 h and then stimulated with LPS for 24 h. The culture medium was removed and saved for the determination of nitric oxide production through Cayman’s Griess assay. IL-6, TNFα, and Arginase 1 production was also determined utilizing collected medium. For the Greiss assay, in a 96-well plate, 100 μL of culture medium was used, and 50 μL of both Greiss reagent-1 and Greiss reagent-2 was added and incubated for 10 min. The absorbance was measured at 540 nm using a plate reader (SpectraMax iD5). The quantification was done using a calibration curve that was generated using the sodium nitrite standard obtained from Cayman Chemicals.

[2] = target: T1, CYP2J2 (Homo sapiens, UniProt P51589); test: CBC metabolism by CYP2J2; format: in vitro ADME
T1 construct: His-tag; made in house; host or cells: E. coli DH-5α with pTGro7 plasmid
T1 sequence (P51589 1-502): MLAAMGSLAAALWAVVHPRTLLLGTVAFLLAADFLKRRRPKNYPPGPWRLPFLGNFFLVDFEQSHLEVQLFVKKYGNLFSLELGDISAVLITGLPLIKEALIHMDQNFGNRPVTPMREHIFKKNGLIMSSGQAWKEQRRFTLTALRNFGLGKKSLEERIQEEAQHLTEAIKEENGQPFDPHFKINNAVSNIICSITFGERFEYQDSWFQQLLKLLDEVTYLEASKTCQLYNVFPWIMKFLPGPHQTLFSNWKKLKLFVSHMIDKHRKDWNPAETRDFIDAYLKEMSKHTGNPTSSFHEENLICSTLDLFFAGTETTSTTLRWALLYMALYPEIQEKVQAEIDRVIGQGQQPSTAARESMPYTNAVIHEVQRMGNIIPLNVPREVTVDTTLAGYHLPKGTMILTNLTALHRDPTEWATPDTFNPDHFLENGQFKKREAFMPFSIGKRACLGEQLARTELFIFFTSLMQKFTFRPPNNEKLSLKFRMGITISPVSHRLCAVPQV
Description: To study the kinetics of CBC metabolism, concentration dependent metabolism of CBC was carried out in the presence of various CYPs using the following procedure. CYP2J2, CYP2C8, CYP2D6, CYP2C9, and CYP3A4 (final concentration 0.5 μM) were initially dissolved in lipid containing POPC:POPS (8:2 v/v) followed by addition of CPR (final concentration 0.6 μM) in 0.1 M potassium phosphate buffer (pH 7.4). CBC (5–80 μM) was added and incubated at 37 °C for 10 min. The reaction was triggered by NADPH and extracted using the exact sample protocol as mentioned in the HLM section.
Samples were analyzed with the 5500 QTRAP LC/MS/MS system (Sciex, Framingham, MA) in the Metabolomics Lab of Roy J. Carver Biotechnology Center, University of Illinois at Urbana–Champaign. Software Analyst 1.7.1 was used for data acquisition and analysis. The 1200 series HPLC system (Agilent Technologies, Santa Clara, CA) includes a degasser, an autosampler, and a binary pump. […] Multiple reaction monitoring (MRM) was used for quantitation: CBC m/z 315.1 → m/z 135.0; 1-acetoxy-6′,7′-dihydroxy-CBC (JM-I-73) m/z 349.1→ m/z 193.0; 1″-hydroxy-CBC (JM-I-66) m/z 331.1→ m/z 275.1; 6′,7′-epoxy-CBC (JM-I-27) m/z 331.1→ m/z 193.0; 7′,10′-ene-6′-hydroxy-CBC (JM-I-30) m/z 331.1→ m/z 193.0; 8′-hydroxy-CBC (JM-I-32) […]→ m/z 77.0. Internal standard EET-EA-d11 was monitored at m/z 375.2→ m/z 357.1.

[3] = system: BV2 microglial cells, stimulated with lipopolysaccharide (LPS); test: IL-6 ELISA in LPS-stimulated BV2 cells; format: cell-based, mouse; conditions: 0.1, 1.0, 2.5, 5.0 μM, LPS-stimulated
Description: as §1, §2
BV-2 cells were pretreated with the minor cannabinoids as described previously for 4 h in serum media (reduced to 5% FBS). Cells were stimulated with LPS (25 ng/mL in growth media) and allowed to incubate for 24 h. The culture medium was collected, and the concentrations of IL-6 (Cayman Chemicals), TNFα (ThermoFisher Scientific), and arginase 1 (ThermoFisher Scientific) cytokine expression were determined using specific monoclonal antibodies by ELISA kits as per manufacturer’s instructions.

[4] = target: cannabinoid receptor 2 (CB2); set-up: method as in PMID 31368508; conditions: agonist; cited from earlier work

Row | Structure (SMILES) | effect on NO release/production [1] | ratio of 8′-hydroxy-CBC to 6′,7′-epoxy-CBC formed ([2]; CYP2J2, from Vmax) | production of 8′-hydroxy-CBC with CYP2J2 relative to CYP2C8 ([2]; CYP2J2 vs CYP2C8) [times] | effect on IL-6 levels [3] | Ki [4] [nM]
1 | CCCCCc1cc(O)c2c(c1)OC(C)(CC/C=C(\C)CO)C=C2 (centres unmarked) [8′-hydroxy-CBC] | elevated levels | approximately 50 | ~10 | – | –
2 | CCCCCc1cc(O)c2c(c1)OC(C)(CCC=C(C)C)C=C2 (centres unmarked) [CBC, Cannabichromene] | – | – | – | Concentration dependent reduction | ~100
